Entries after “also recorded” stand apart in the source; their conditions may differ.

The assay concerns ABCG2 over-expressing Igrov1/T8 tumors. In words: ABCG2 resistant Igrov1/T8 tumor xenograft, combination with topotecan. The format is in vivo, CB-17 SCID mice. The settings on record: for tumor size, combination of TPT and inhibitor: 150 nM TPT + 100 nM SID 88095709 (1) or 500 nM SID 85752814 (7), up to 96 hr. The method, then: Specific-pathogen-free adult CB-17 female SCID mice (5-6 weeks of age) weighing 20-25 g, are purchased. Briefly, ABCG2 over-expressing Igrov1/T8 cells are injected (5×10^6 cells/mouse). Prior to injection, Igrov1/T8 cells are maintained in topotecan in order to assure continuous expression of ABCG2. Tumors are allowed to grow for 3-4 weeks or until tumor volumes are greater than ˜100 cubic millimeters, at which time they are stratified into treatment groups. Treatment is administered and we observe the size of the tumor and weight of the mouse over a 7 day period. At the end of 7 days, we: 1) sacrifice the animal; 2) measure and weigh the tumor (if present); 3) analyze the histology of the tumor as well as other organs for evidence of toxicity; and 4) measure the expression of ABCG2 receptors on the tumor to determine if in vivo growth has altered ABCG2 expression. In our initial studies, we have generally observed high survival at 4 weeks (>90%) which escalates rapidly with near 100% mortality by 6 weeks. This approach is well described elsewhere.^9
Tumor-bearing mice were injected with either 150 nM TPT, 100 nM SID 88095709 (probe resupply), or 500 nM SID 85752814 (original SMR hit).
Igrov1/T8 cells were injected into the hind limbs of CB-17 SCID mice at a concentration of 1×10^7 cells in 200 μL, n of 3 per condition. The tumor was grown until the volume was in the range of 75 mm^3 to 250 mm^3. […] Injections were repeated daily and the size of the tumor was determined as a fraction of the starting size. After four days the mice were sacrificed and any recurring tumor was verified by light microscopy examination of histological sections. Mice were studied and maintained in accordance with guidelines of our Institutional Animal Research Committee at UNM HSC.

As to `O=C(c1ccoc1)N1CCN(c2cc(-c3ccco3)nc3cc(-c4ccccc4)nn23)CC1` [Compound 1, (4-(5-(furan-2-yl)-2-phenylpyrazolo[1,5-a]pyrimidin-7-yl)piperazin-1-yl)(furan-3-yl)methanone], the “tumor size, combination of TPT and inhibitor” value was “dramatically reduced tumor size; also recorded: Significant tumor reduction”. For the same compound, the “tumor size, combination of TPT and inhibitor” value (listed as SID 88095709) is listed as “dramatically reduced tumor size”. Moreover, the “tumor size, single agent” value (150 nM TPT, 100 nM SID 88095709 or 500 nM SID 85752814 alone) is “remained the same or increased”. For the same compound, where the note is “inhibitor alone (100 nM or 500 nM as printed), Example 3”, the “tumor size, inhibitor alone” value is on record as “No reduction in size”.

The values above are taken from US9056111B1, “Selective efflux inhibitors and related pharmaceutical compositions and methods of treatment” (STC.UNM, priority 2011, dated 2015).
